One assay has as its system Microsporidia. The experiment in a line: Microsporidia spore viability on tomato slices (RK-13 culture, Calcofluor White). It counts as cell-based. Conditions: 4° C. As to the method: Rabbit kidney (Rk-13) cell lines were maintained in flasks using 3.5% Fetal Bovine Serum (HIFBS) EMEM medium 1× antibiotics and antimycotics. Flasks were incubated at 37° C. and 5% CO2 until preparation of slides. 16-microwell slides were seeded with cells and grown in 10% (HIFBS) EMEM medium for 48 hours before inoculation with spores.
Fresh Microsporidia spores were propagated and harvested using RK-13 tissue cultures. The harvested medium containing cell debris and spores was filtered through a 5 μm filter, centrifuged at 2000 g for 15 minutes and counted using a hemocytometer.
Tomatoes were first prepared by rinsing with 70% ethanol and thoroughly rinsing with sterile e-pure water. Tomatoes were sliced using a sterile tomato slicer (Prince Castle, Inc) and placed in pre-labelled trays. Five tomatoes were sliced per Aptar tray (4×10.3×3.4 inches). The tomatoes were spiked by inoculating two slices of each tomato with 10 microliters of oocysts. Tomatoes were incubated at room temperature for 1 hr. […] For each treatment of 1 hr, 24 hr, 48 hr, and 5 days, and 7 days a control and a treated tray were evaluated. […]
Tomato slices spiked with Microsporidia were suspended in F12 media. […] Spore counts were taken using an epifluorescence microscope at 40× magnification and recorded.

For another assay, the system named is S. Newport. The experiment in a line: Reduction of S. Newport on sliced tomatoes. It counts as cell-based. Conditions: 4° C. As to the method: The skins of sliced tomatoes were spot inoculated with S. Newport. Sliced tomatoes were sealed in a controlled environment containing ClO2 or a regular plastic seal. The inoculated tomato skins were removed and processed on days 0, 1, 2, 5 and 7, after which S. Newport was evaluated by plating onto XLT-4 agar.
S. Newport was grown in TSB at 37° C. for 18-24 hr. Bacteria was resuspended in E-pure water. Serial dilutions of the inoculum were plated onto XLT-4 plates and incubated at 37° C. for 18-24 hours.
Tomatoes were first prepared by rinsing with 70% ethanol and thoroughly rinsing with sterile e-pure water. Tomatoes were sliced using a sterile tomato slicer (Prince Castle, Inc) and placed in pre-labelled trays. Five tomatoes were sliced per Aptar tray (4×10.3×3.4 inches). The tomatoes were spiked by inoculating two slices of each tomato with 10 μL of S. Newport. Tomatoes were incubated at room temperature for 1 hr. After drying, each tray was heat sealed with a tray sealing instrument (Maxwell Chase Technologies) at a temperature of 390° F. For the experimental group, the film was treated with 0.63 g of chlorine dioxide. Trays were stored at 4° C. until specimen collection. For each treatment of 1 hr, 24 hr, 48 hr, and 5 days, and 7 days a control and a treated tray were evaluated. Tomato skins of spiked slices were collected and tested for the presence of S. Newport. […]

Take `[O][Cl+][O-]` [chlorine dioxide]: the Microsporidia spore viability entry in the assay on Microsporidia (24 hours of treatment) was “completely inactivated”; in the assay with Microsporidia (after one hour of treatment), “effectively reduced spore viability”. Besides, the “inactivation of S. Newport” value in the assay with S. Newport (film with 0.63 g chlorine dioxide) is “effective in inactivation”; in the assay on S. Newport (two days of treatment), “complete inactivation”.

The values are drawn from patent publication US20250040558A1, “ANTIMICROBIAL ACTIVITY OF CHLORITE-ENTRAINED POLYMERS” (CSP Technologies, Inc., priority 2021, published 2025).
